One data set relates to A/Anhui/1/13 (H7N9). As to the kind of experiment: microbe, parasite or virus in culture. The format is cell-based, influenza A virus. The following applies: for IC50: read-out: IC50 H7N9.
In a further data set the test system is A/Vietnam/1194/04 (H5N1). As to the kind of experiment: microbe, parasite or virus in culture. The format is cell-based, influenza A virus. The following applies: for IC90: read-out: IC90 (90% inhibitory effect on viral replication), H5N1.
The test system of a further data set is A/Victoria/03/75 (H3N2). Type of data set: cell-based, influenza A virus.
The nature of a further data set: in vitro. The following applies: dog.
For data set [1], the system named is A/Hamburg/NY1580/09 (H1N1). Kind of data set: microbe, parasite or virus in culture. Type of data set: cell-based, influenza A virus. The following applies: for IC50: read-out: IC50 H1N1.
A further data set deals with MDCKII cells. The following applies: for concentration from which considerable cell cytotoxicity was caused: dog.
In another data set the test system is H5N1 HPAIV. Type of data set: cell-based, influenza A virus.
For data set [2], the system named is RdRP subunit PA (polymerase acidic protein). As to conditions: cited from earlier work.
Setting [3] is: Influenza A virus, H7N9, MDCK-II, 24 h.
Where [4] appears, read: Influenza A virus, H5N1, MDCK-II, 24 h, read-out: IC50 H5N1.
The mark [5] stands for this setting: Influenza A virus, H1N1, MDCK-II, 24 h.
The mark [6] stands for this setting: Influenza A virus, H5N1, MDCK-II.

Where two headings read alike, the source gives them in different places.

As to `NC(=O)c1nc(F)c[nH]c1=O` [1a, T-705], the IC50 was 790 ± 540 nM with A/Anhui/1/13 (H7N9) (setting [3]); 1140 nM with A/Vietnam/1194/04 (H5N1) (setting [4]); 1140 ± 1170 nM in the data set with A/Vietnam/1194/04 (H5N1) (read-out: IC50 H5N1); 1290 nM in data set [1] (setting [5]); 1300 ± 1400 nM in data set [1]. Further, in the data set on A/Victoria/03/75 (H3N2), the “reduction of virus replication” value is given as “approximately 1.5 logs”. This compound displayed a CC50 in “in vitro” above 50000 nM. The “effect on cell viability (in words)” value in the data set on MDCKII cells is “did not affect cell viability”.
Regarding `CCCCCCCCCC(=O)Oc1ccc(COP(=O)(OCc2ccc(OC(=O)CCCCCCCCC)cc2)OP(=O)(O)OC[C@H]2O[C@@H](n3ccnc(C(N)=O)c3=O)[C@H](O)[C@@H]2O)cc1` [3a], the “interaction with oseltamivir against H5N1 (in words)” value in the data set on H5N1 HPAIV was “strong synergistic effect”. In the data set on A/Anhui/1/13 (H7N9), the “SI (selectivity index) H7N9” value was 1179.0, the “more active than 1a against H7N9” value is on record as 10 fold, the “reduction of H7N9 virus titers to the limit of detection (in words)” value is given as “to the limit of detection” and the 50% inhibitory concentration (IC50) was determined as 71 ± 90 nM. The IC50 in the data set with A/Anhui/1/13 (H7N9) (setting [3]) was 70 nM. Besides, in the data set on A/Vietnam/1194/04 (H5N1), the “IC1 (1% inhibitory effect on viral replication), H5N1” value came to 0.0005 µM; the “IC10 (10% inhibitory effect on viral replication), H5N1” value turned out to be 13.2 nM; the “SI (selectivity index) H5N1” value was 373.7; the “reduction of H5N1 virus titers to the limit of detection (in words)” value is reported as “to the limit of detection”. Also, the IC50 in the data set on A/Vietnam/1194/04 (H5N1) (setting [4]) came to 220 nM. Further, in the data set on A/Vietnam/1194/04 (H5N1) (Influenza A virus, H5N1, MDCK-II, read-out: IC50, H5N1, as used for combination treatment), the IC50 was 267 nM. Besides, the IC90 in the data set with A/Vietnam/1194/04 (H5N1) (setting [6]) was 5400 nM. The IC50 with A/Vietnam/1194/04 (H5N1) (read-out: IC50 H5N1) came out at 224 ± 230 nM. For the same compound, the “antiviral activity against H3N2 IAV (in words)” value (“antiviral activity … (in words)” for short) in the data set with A/Victoria/03/75 (H3N2) is reported as “reduced viral titers to the limit of detection”. The compound further showed a CC50 in “in vitro” above 50000 nM. Also, in data set [1], the “SI (selectivity index) H1N1” value came out at 643.9 and the “increase in antiviral activity compared to 1a (T-705), H1N1” value is on record as 10 fold. In data set [1] (setting [5]), the IC50 was 130 ± 140 nM. Also, the “concentration from which considerable cell cytotoxicity was caused” value (from here on “concentration”) in the data set with MDCKII cells is listed as at least 30 µM.
Regarding `NC(=O)c1nccn([C@@H]2O[C@H](CO)[C@@H](O)[C@H]2O)c1=O` [2a, T-1106], the “antiviral activity … (in words)” value in the data set on A/Victoria/03/75 (H3N2) was “slightly higher activity compared to T-1105 1b”.
As to `CCCCCCCCCCCCCCC(=O)Oc1ccc(COP(=O)(OCc2ccc(OC(=O)CCCC)cc2)OP(=O)(O)OC[C@H]2O[C@@H](n3ccnc(C(N)=O)c3=O)[C@H](O)[C@@H]2O)cc1` (stereo partly drawn) [3b], in the data set on A/Anhui/1/13 (H7N9), the “SI (selectivity index) H7N9” value turned out to be 158.2, the “antiviral activity against H7N9 compared to 1a (comparable or fold reduced)” value is given as “comparable”, the “reduction of H7N9 virus titers to the limit of detection (in words)” value is “to the limit of detection” and the IC50 worked out at 624 ± 1040 nM. For the same compound, in the data set with A/Anhui/1/13 (H7N9) (setting [3]), the IC50 was determined as 620 nM. Also, in the data set on A/Vietnam/1194/04 (H5N1), the “SI (selectivity index) H5N1” value was 850.9 and the “reduction of H5N1 virus titers to the limit of detection (in words)” value is listed as “to the limit of detection”. For the same compound, the 50% inhibitory concentration (IC50) in the data set on A/Vietnam/1194/04 (H5N1) (setting [4]) was found to be 120 nM. For the same compound, the IC50 in the data set with A/Vietnam/1194/04 (H5N1) (read-out: IC50 H5N1) stood at 116 ± 13 nM. Further, the “antiviral activity … (in words)” value in the data set with A/Victoria/03/75 (H3N2) is listed as “reduced viral titers to the limit of detection”. The compound also displayed a CC50 in “in vitro” above 50000 nM. Further, in data set [1], the “SI (selectivity index) H1N1” value is 66.4 and the IC50 amounted to 1490 ± 2360 nM. Further, the concentration for half-maximal inhibition (IC50) in data set [1] (setting [5]) is 1490 nM. For the same compound, the “concentration” value with MDCKII cells is at least 30 µM.
As to `NC(=O)c1ncc[nH]c1=O` [1b, T-1105, reference compound], the “reduction of virus replication” value with A/Victoria/03/75 (H3N2) is on record as “approximately 1.5 logs”.
Take `CCOC(=O)C1=C[C@@H](OC(CC)CC)[C@H](NC(C)=O)[C@@H](N)C1` [oseltamivir]: in the data set on A/Vietnam/1194/04 (H5N1), the “IC1 (1% inhibitory effect on viral replication), H5N1” value worked out at 0.00002 µM and the “IC10 (10% inhibitory effect on viral replication), H5N1” value was found to be 0.5 nM. Moreover, the IC50 with A/Vietnam/1194/04 (H5N1) (Influenza A virus, H5N1, MDCK-II, 24 h, read-out: IC50 H5N1 (oseltamivir)) came to 8 nM. Besides, the 90% effect concentration (IC90) with A/Vietnam/1194/04 (H5N1) (setting [6]) came to 127 nM. Moreover, in the data set “in vitro”, the CC50 was above 100000 nM.
For `O=C1c2c(O)c(=O)ccn2N([C@@H]2c3ccccc3SCc3c2ccc(F)c3F)[C@@H]2COCCN12` [Baloxavir, baloxavir], in data set [2], the “inhibitory activity on PA of various IAV subtypes incl. H5N1 and H7N9 (in words)” value is on record as “pico- to nanomolar activity”.
`CCCCCCCCCC(=O)Oc1ccc(COP(=O)(OCc2ccc(OC(=O)CCCCCCCCC)cc2)OP(=O)(O)OP(=O)(O)OC[C@H]2O[C@@H](n3ccnc(C(N)=O)c3=O)[C@H](O)[C@@H]2O)cc1` [4a, T-1106-C9C9-TriPPPro]: the “SI (selectivity index) H7N9” value in the data set with A/Anhui/1/13 (H7N9) worked out at 71.5. For the same compound, in the data set with A/Anhui/1/13 (H7N9), the “antiviral activity against H7N9 compared to 1a (comparable or fold reduced)” value was determined as 2.5 fold. In addition, the IC50 in the data set with A/Anhui/1/13 (H7N9) (setting [3]) is 2020 ± 1230 nM; with A/Vietnam/1194/04 (H5N1) (setting [4]), 310 nM; with A/Vietnam/1194/04 (H5N1) (read-out: IC50 H5N1), 314 ± 380 nM; in data set [1] (setting [5]), 3320 nM; in data set [1] it was 3320 ± 4410 nM. Further, in the data set with A/Vietnam/1194/04 (H5N1), the “SI (selectivity index) H5N1” value is reported as 460.2. Besides, the “antiviral activity … (in words)” value with A/Victoria/03/75 (H3N2) is “modest reduction in viral replication”. The compound further gave a CC50 in the data set “in vitro” above 50000 nM. The “SI (selectivity index) H1N1” value in data set [1] came to 43.6. The “concentration” value in the data set with MDCKII cells is reported as at least 30 µM.

The values are drawn from PMC10304372, “T-705-Derived Prodrugs Show High Antiviral Efficacies against a Broad Range of Influenza A Viruses with Synergistic Effects When Combined with Oseltamivir” (Pharmaceutics, 2023).
